# According to patent publication US10865176B2, “Small molecule modulators of microRNA-34a” (The Chinese University of Hong Kong, priority 2012, dated 2020):
# Tests used:
# Bel-7404 cells = experiment: MTT cell viability assay, Bel-7404; type: cell-based, human
# Procedure: (§1) Cell viability was measured by 3-(4,5-Dimethylthiazol-2-yl)-2,5-diphenyltetrazolium bromide (MTT) assay. 1×10^3 Cells were seeded in triplicate on a 96 well plate and were allowed to grow for indicated time points. At each time point a set of cells were incubated with 0.5 mg/ml MTT diluted in 1×PBS. After 2 to 4 h incubation, the MTT solution was removed. The insoluble MTT was dissolved in DMSO. Absorbance at 570 nm was measured by an ELISA plate reader.
# miR-34a [1] = experiment: qRT-PCR of pri-miR-34a and miR-34a in xenografted tumors; type: in vivo, nude mice; conditions: excised tumors after 24 d gavage
# Procedure: (§2) Total RNA from cell cultures and HCC xenograft tumors were extracted using Trizol (Invitrogen) according to manufacturer's protocols. Total RNAs were dissolved into nuclease-free ddH2O. For protein extraction, cells and HCC xenograft tumors were lysed in 1×RIPA buffer with 1 mM PMSF and 1× complete protease inhibitor cocktail (Roche, Indianapolis, Ind.). Both RNA and protein were stored at −80° C.
# (§3) Total RNA was reversely transcribed into cDNAs using High Capacity cDNA Reverse Transcription Kit (Applied Biosystems, Foster city, CA, USA) and nude RT kit (Invitrogen) individually. qRT-PCR was performed using SYBR Green PCR master mix (TaKaRa, Dalian, China). GAPDH was used as an endogenous control. For measuring miR-34a expression level, qPCR was performed by using SYBR Green PCR master mixture (Invitrogen) and U6 was used as the internal control. All samples were normalized to internal controls and fold changes were calculated by relative quantification (2^−ΔΔct).
# (§4) Tumor volume was calculated as [(Length×Width×Height)[…]]. Treatment was continued for 24 d. Finally, all mice were sacrificed and tumors were excised. Tumor weight was recorded.
# Cyclin D1 and Bcl-2 [2] = experiment: qRT-PCR of Cyclin D1 and Bcl-2 in xenografted tumors; type: in vivo, nude mice; conditions: excised tumors after 24 d gavage
# Procedure: as §2, §3, §4
# [3] = test system: non-tumorigenic human hepatocyte cell line MIHA; experiment: MTT cell viability assay, MIHA; type: cell-based; conditions: different concentrations and time points
# Procedure: as §1
# HepG2 cells = experiment: MTT cell viability assay, HepG2; type: cell-based, human
# Procedure: as §1
# p53 = p53 expression by RT-PCR in HCC cells; type: cell-based, human; conditions: HepG2, Huh7 and Bel-7404 cells, 10 μM (FIG. 9A)
# Procedure: as §3
# miR-34a [4] = experiment: qRT-PCR of primary and mature miR-34a in HCC cells; type: cell-based, human; conditions: for increased miR-34a level by Rubone after p53 knockdown: 2 μM siRNAs targeting p53, 10 μM Rubone; for primary and mature miR-34a levels: 10 μM, 48 h
# Procedure: as §2, §3
# Hep3B cells = experiment: MTT cell viability assay, Hep3B; type: cell-based, human; conditions: different concentrations and time points
# Procedure: as §1
# [5] = test system: CDK6, FOXP, Notch1 and Sirtuin; experiment: Expression of other miR-34a targets by qRT-PCR in HCC cells; type: cell-based, human; conditions: 10 μM, 48 h
# Procedure: as §2, §3
# [6] = test system: miR-7a, miR-21, miR-23a, miR-29c, miR-34c, miR-219, miR-145, miR-192, miR-215; experiment: qRT-PCR of a panel of other miRNAs in Huh7 cells; type: cell-based, human; conditions: 10 μM, 48 h
# Procedure: as §2, §3
# [7] = HepG2 xenograft model, survival, body weight and side effects; conditions: for Body weight (g) initial / Body weight (g) end: mean (95% CI); for Body weight (g) end: end of 24 d treatment
# Procedure: 5×10^6 HepG2 cells were suspended in 100 μl serum-free medium and subcutaneously (s.c.) inoculated into the dorsal flanks of nude mice. When tumors reached 5-10 mm in diameter, mice were randomly divided into 4 groups (n=5). […] Vehicle alone and Sorafenib were used as the negative and positive control respectively. Tumor volumes and body weight were measured once every two days. Tumor volume was calculated as [(Length×Width×Height)±2]. Treatment was continued for 24 d. Finally, all mice were sacrificed and tumors were excised. Tumor weight was recorded.
# [8] = test system: human umbilical vein endothelial cells (HUVECs); experiment: In vitro tube formation assay; type: cell-based; conditions: ECM gel, 4 h
# Procedure: The in vitro tube formation assay with human umbilical vein endothelial cells (HUVECs) was performed using the in vitro Angiogenesis Assay Kit (Cell Biolabs). HUVECs were plated at the density of 2×10^4/well and treated with Dimethyl sulfoxide (DMSO) or Rubone ([…] or 2 μM) respectively for 24 h. HUVECs were then seeded onto the ECM gel surface and cultured for 4 h. Then, 100 μl 1× Staining Solution was applied to each well and incubated 30 min at 37° C. and images were captured with an Olympus SC35 camera (Olympus America, Inc., Melville, N.Y.). Tube formation was quantified by counting the number of branching points on each image.
# PLC cells = experiment: MTT cell viability assay, PLC/PRF/5; type: cell-based, human
# Procedure: as §1
# Cyclin D1 and Bcl-2 [9] = experiment: Expression of miR-34a targets Cyclin D1 and Bcl-2 (qRT-PCR, western blotting) in HCC cells; type: cell-based, human; conditions: 10 μM, 48 h (RNA) or 72 h (protein)
# Procedure: as §2, §3
# Protein quantification was performed using BCA protein assay kit (Thermo Fisher Scientific, Rockford, Ill., USA). 25-50 μg protein was separated by SDS-PAGE (sodium dodecyl sulfate-polyacrylamide gel electrophoresis) and transferred to PVDF membranes (Bio-Rad). […] Protein expression was detected by autoradiography using Amersham ECL Plus™ Western Blotting Detection Reagents (GE Healthcare, Uppsala, Sweden).
# HCC cells = experiment: MTT cell viability assay, HCC cell lines; type: cell-based, human; conditions: 5 μM
# Procedure: as §1
# Huh7 cells = experiment: MTT cell viability assay, Huh7; type: cell-based, human; conditions: Huh7, 10 μM
# Procedure: as §1
smiles,measurement,setting,value
"COc1cc(O)c(C(=O)/C=C/c2cc(OC)c(OC)cc2OC)c(OC)c1 [Rubone, 2′-Hydroxy-2,4,4′,5,6′-pentamethoxychalcone]",growth inhibitory effect of Rubone after p53 knockdown (MTT),"Bel-7404 cells; Bel-7404, 2 μM siRNAs targeting p53, 10 μM Rubone",significantly reversed by knocking down p53
same,cell growth (MTT),"Bel-7404 cells; Bel-7404, 10 μM",significantly inhibited the growth
same,effect of miR-34a inhibitors on growth inhibition by Rubone (MTT),"Bel-7404 cells; Bel-7404, 10 μM Rubone with 2 μM miR-34a inhibitors, 72 h",reversed the growth inhibitory effect
same,effect of miR-34a mimics on chemosensitivity to Rubone (MTT),"Bel-7404 cells; Bel-7404, 10 μM Rubone with 2 μM miR-34a mimics, 72 h",enhanced the chemosensitivity
same,pri-miR-34a and miR-34a levels in xenografted tumors,miR-34a [1],up-regulated
same,Cyclin D1 and Bcl-2 expression in xenografted tumors,Cyclin D1 and Bcl-2 [2],down-regulated
same,growth rate (MTT),[3],little changes in the growth rate
same,growth inhibitory effect of Rubone after p53 knockdown (MTT),"HepG2 cells; HepG2, 2 μM siRNAs targeting p53, 10 μM Rubone",significantly reversed by knocking down p53
same,cell growth (MTT),"HepG2 cells; HepG2, 10 μM",significantly inhibited the growth
same,p53 expression,p53,not affected
same,increased miR-34a level by Rubone after p53 knockdown,miR-34a [4]; Bel-7404 cells,significantly reversed by p53 knockdown
same,primary and mature miR-34a levels,miR-34a [4]; Hep3B cells (p53 deleted),no change
same,primary and mature miR-34a levels,miR-34a [4]; HepG2 cells (wild-type p53),significantly increased
same,increased miR-34a level by Rubone after p53 knockdown,miR-34a [4]; HepG2 cells,significantly reversed by p53 knockdown
same,primary and mature miR-34a levels,miR-34a [4]; Huh7 cells (mutant p53),significantly increased
same,growth rate (MTT),Hep3B cells,little changes in the growth rate
same,"expression levels of CDK6, FOXP, Notch1 and Sirtuin",[5]; HepG2 cells,decreased
same,"expression levels of CDK6, FOXP, Notch1 and Sirtuin",[5]; Huh7 cells,decreased
same,"expression of other p53 regulated miRNAs (miR-34c, miR-145, miR-192, miR-215)",[6],did not change
same,"expressions of miR-7a, miR-21, miR-23a, miR-29c, miR-34c and miR-219",[6],not affected
same,Body weight (g) initial,[7]; 20 mg/kg group,19.60(95% CI = 18.49 − 20.71)/ g
same,Body weight (g) end,[7]; 20 mg/kg,23.60(95% CI = 21.93 − 25.27) g
same,Mice survival (n) initial/end,"[7]; 20 mg/kg, gavage once every two days, 24 d",5/5
same,Body weight (g) initial,[7]; 50 mg/kg group,20.00(95% CI = 20.00 − 20.00)/ g
same,Body weight (g) end,[7]; 50 mg/kg,23.60(95% CI = 21.03 − 26.17) g
same,Mice survival (n) initial/end,"[7]; 50 mg/kg, gavage once every two days, 24 d",5/5
same,side effect at the end of experiment,"[7]; tumor bearing nude mice, gavage once every two days, 24 d",No obvious side effect
same,tube score,"[8]; 1 μM, control group 42.33, p=0.0036",3.667
same,tube formation,[8]; 2 μM,no tubes formed at all
same,cell growth (MTT),PLC cells; 10 μM,significantly inhibited the growth
same,effect of miR-34a inhibitors on growth inhibition by Rubone (MTT),"PLC cells; 10 μM Rubone with 2 μM miR-34a inhibitors, 72 h",reversed the growth inhibitory effect
same,effect of miR-34a mimics on chemosensitivity to Rubone (MTT),"PLC cells; 10 μM Rubone with 2 μM miR-34a mimics, 72 h",enhanced the chemosensitivity
same,mRNA and protein levels of Cyclin D1 and Bcl-2,Cyclin D1 and Bcl-2 [9]; HepG2 cells,significantly reduced
same,mRNA and protein levels of Cyclin D1 and Bcl-2,Cyclin D1 and Bcl-2 [9]; Huh7 cells,significantly reduced
same,cell growth (MTT),HCC cells,inhibited the growth of HCC cells slightly
same,cell growth (MTT),Huh7 cells,significantly inhibited the growth
